Key:
Assay type in all cases: in vivo
Design in all cases: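 grade 0 to 5 of growth suppression where 5 is 90% or more and 0 below 10%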
[1] = system: Echinochloa oryzicola Vasing; experiment: Herbicidal effects in paddy field soil treatment (Test Example 1); settings: paddy field soil treatment; 1000 g of the active ingredient per hectare; wettable powder added dropwise on water surface; 21st day after treatment
Description: (§1) Test for Herbicidal Effects in Paddy Field Soil Treatment
(§2) A 100-cm^2 plastic pot was filled with paddy field soil. After puddling and leveling, seeds of Echinochloa oryzicola Vasing, Monochoria vaginalis (Burm. f.) Presl var. plantaginea (Roxb.) Solms-Laub., and Scirpus juncoides Roxb. var. ohwianus. T. Koyama were sowed, and the soil was waterlogged to a water depth of 3 cm. On the next day, a wettable powder formulation prepared according to Preparation Example 1 was diluted with water, and was added dropwise on the water surface. The amount of application was an amount equivalent to 1000 g of the active ingredient per hectare. Thereafter, the plants were grown in a greenhouse, and on the 21st day after the treatment, the herbicidal effects were investigated according to the criteria described in Table 138.

[2] = system: Monochoria vaginalis (Burm. f.) Presl var. plantaginea (Roxb.) Solms-Laub.; experiment: as above; settings: paddy field soil treatment; 1000 g of the active ingredient per hectare; wettable powder added dropwise on water surface; 21st day after treatment
Description: as §1, §2

[3] = system: Scirpus juncoides Roxb. var. ohwianus. T. Koyama; experiment: as above; settings: paddy field soil treatment; 1000 g of the active ingredient per hectare; wettable powder added dropwise on water surface; 21st day after treatment
Description: as §1, §2

[4] = system: Abutilon theophrasti medicus; experiment: Herbicidal effects in upland field soil treatment (Test Example 2); settings: 1000 g active ingredient per hectare, 21st day after treatment, criteria of Table 138
Description: (§3) Test Example 2 Test on Herbicidal Effects in Upland Field Soil Treatment A 80-cm^2 plastic pot was filled with upland field soil. Seeds of Abutilon theophrasti medicus and Amaranthus viridis L. were sowed, and soil was covered. A wettable powder formulation prepared according to Preparation Example 1 was diluted with water, and was uniformly sprayed on the soil surface with a small sprayer, in an amount equivalent to 1000 liters per hectare, such that 1000 g of the active ingredient per hectare was applied. Thereafter, the plants were grown in a greenhouse, and on the 21st day after the treatment, the herbicidal effects were investigated according to the criteria described in the Table 138 shown above.

[5] = system: Amaranthus viridis L.; experiment: as above; settings: 1000 g active ingredient per hectare, 21st day after treatment, criteria of Table 138
Description: as §3

SMILES	Herbicidal effects index, Echinochloa oryzicola Vasing [1]	Herbicidal effects index, Monochoria vaginalis (Burm. f.) Presl var. plantaginea (Roxb.) Solms-Laub. [2]	Herbicidal effects index, Scirpus juncoides Roxb. var. ohwianus. T. Koyama [3]	herbicidal effect (index) on Abutilon theophrasti medicus [4]	herbicidal effect (index) on Amaranthus viridis L. [5]
COc1ccc(-n2c(=O)c(C(=O)C3=C(O)CCCC3=O)nc3c(Cl)cccc32)cc1 [II-194, 5-chloro-3-(2-hydroxy-6-oxo-1-cyclohexenecarbonyl)-1-(4-methoxyphenyl)-quinoxalin-2(1H)-one]	4	5	5	4	5
O=C1CCCC(O)=C1C(=O)c1nc2cc(F)ccc2n(-c2ccc3c(c2)OCCO3)c1=O [II-240]	4	5	5	5	5
COc1ccc(-n2c(=O)c(C(=O)C3=C(O)CCCC3=O)nc3c(C)cccc32)cc1 [II-245]	5	5	5	5	5
Cc1ccc(-n2c(=O)c(C(=O)C3=C(O)CCCC3=O)nc3ccccc32)nc1 [I-178]	4	5	5	5	5
O=C1CCCC(O)=C1C(=O)c1nc2ccccc2n(COc2ccccc2)c1=O [I-57]	4	5	5	4	5
COc1ccc2nc(C(=O)C3=C(O)CCCC3=O)c(=O)n(C)c2c1 [I-238]	5	4	5	5	4
CC1CC(C)C(O)=C(C(=O)c2nc3ccccc3n(-c3ccc4c(c3)OCCO4)c2=O)C1=O (stereo not shown) [II-229]	5	5	5	4	5
COc1ccc(-n2c(=O)c(C(=O)C3=C(O)CCCC3=O)nc3ccccc32)c(F)c1 [II-174]	5	5	5	4	5
CC1CC(C)(C)C(O)=C(C(=O)c2nc3ccccc3n(-c3ccc4c(c3)OCCO4)c2=O)C1=O (stereo not shown) [II-230]	4	5	5	4	5
CCn1c(=O)c(C(=O)C2=C(O)CCCC2=O)nc2c(Cl)cccc21 [I-363]	5	5	5	5	5
CC(C)(C)c1cc(-n2c(=O)c(C(=O)C3=C(O)CCCC3=O)nc3ccccc32)no1 [I-265]	4	5	5	4	5
COc1ccc(-n2c(=O)c(C(=O)C3=C(O)CCCC3=O)nc3ccc(C)cc32)cc1 [II-247]	4	5	5	5	5
O=C1CCCC(O)=C1C(=O)c1nc2c(F)cccc2n(-c2ccc3c(c2)OCCO3)c1=O [II-236]	4	5	5	4	5
COc1ccc2nc(C(=O)C3=C(O)CCCC3=O)c(=O)n(-c3ccc(C)cc3)c2c1 [II-306]	5	5	5	5	5
O=C1CCCC(O)=C1C(=O)c1nc2ccccc2n(-c2ccc3c(c2)OCCO3)c1=O [I-209, 1-(2,3-dihydrobenzo[b]1,4-dioxin-6-yl)-3-(2-hydroxy-6-oxo-1-cyclohexenecarbonyl)-quinoxalin-2(1H)-one]	4	5	5	4	5
COc1ccc(-n2c(=O)c(C(=O)C3=C(O)CCCC3=O)nc3c(F)cccc32)cc1 [II-186, 5-fluoro-3-(2-hydroxy-6-oxo-1-cyclohexenecarbonyl)-1-(4-methoxyphenyl)-quinoxalin-2(1H)-one]	4	5	5	5	5
O=C1CCCC(O)=C1C(=O)c1nc2ccccc2n(-c2ccc3ccccc3c2)c1=O [I-264]	4	5	5	4	5
CN(C(=O)OC(C)(C)C)n1c(=O)c(C(=O)C2=C(O)CCCC2=O)nc2ccccc21 [I-278]	4	5	5	5	5
COc1ccc(-n2c(=O)c(C(=O)C3=C(O)CCCC3=O)nc3c(Cl)cccc32)cc1F [II-301]	5	5	5	5	5
C=CCOc1ccc(-n2c(=O)c(C(=O)C3=C(O)CCCC3=O)nc3ccccc32)cc1 [II-81]	5	5	5	5	5
